Positions count from the first letter of the chain named.
Legend:
[1] = target: T1, CLOCK-F80A-K220A and BMAL1 interaction (Homo sapiens, UniProt O15516, F80A/K220A); experiment: Co-immunoprecipitation of FLAG-CLOCK-F80A-K220A and BMAL1; type: biochemical; conditions: 40 μM
T1 construct: expressed in transfected cells; host or cells: HEK 293T
T1 sequence (O15516 1-846 F80A/K220A): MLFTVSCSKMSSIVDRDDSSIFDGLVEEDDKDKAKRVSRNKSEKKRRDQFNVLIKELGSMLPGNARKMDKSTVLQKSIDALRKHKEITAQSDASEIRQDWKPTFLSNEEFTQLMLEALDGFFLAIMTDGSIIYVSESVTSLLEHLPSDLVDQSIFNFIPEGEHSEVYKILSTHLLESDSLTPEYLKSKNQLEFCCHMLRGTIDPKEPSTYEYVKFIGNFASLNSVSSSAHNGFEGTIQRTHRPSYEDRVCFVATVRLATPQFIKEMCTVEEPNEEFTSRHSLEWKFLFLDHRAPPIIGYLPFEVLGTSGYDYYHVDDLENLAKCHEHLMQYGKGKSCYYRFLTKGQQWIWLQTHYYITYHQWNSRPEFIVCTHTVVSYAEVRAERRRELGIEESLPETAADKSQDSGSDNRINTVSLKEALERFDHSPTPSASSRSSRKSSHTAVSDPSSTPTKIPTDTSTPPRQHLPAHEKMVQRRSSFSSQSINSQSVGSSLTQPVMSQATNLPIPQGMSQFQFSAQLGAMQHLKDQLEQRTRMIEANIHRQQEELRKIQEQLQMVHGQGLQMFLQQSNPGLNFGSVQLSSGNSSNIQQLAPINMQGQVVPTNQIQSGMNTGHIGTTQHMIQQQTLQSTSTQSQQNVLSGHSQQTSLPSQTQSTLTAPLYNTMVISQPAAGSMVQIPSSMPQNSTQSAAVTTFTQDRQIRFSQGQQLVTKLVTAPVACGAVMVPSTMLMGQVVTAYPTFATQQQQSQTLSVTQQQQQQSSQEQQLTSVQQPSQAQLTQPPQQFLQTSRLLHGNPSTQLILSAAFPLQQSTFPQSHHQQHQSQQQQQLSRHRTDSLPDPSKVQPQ
Method: HEK 293T cells co-expressing wild type or F80A-K220A mutant FLAG-tagged Clock together with tag-free Bmal1 were lysed with ice-cold lysis buffer (50 mM Tris-HCl PH 7.7, 150 mM NaCl, 0.1% Triton X-100, 1 mM PMSF and protease inhibitor cocktail) and centrifuged at 15000×g at 4° C. for 20 minutes. DMSO and different concentrations of CLK8 were added to the whole cell lysate. The mixtures were incubated with anti-FLAG M2 affinity gel (Sigma-Aldrich) at 4° C. overnight with continuous mixing. After three wash steps, bound proteins were eluted with Laemmli buffer heated at 95° C. for 7 minutes. CLOCK and BMAL1 were detected by monoclonal anti-FLAG M2 antibody (Sigma-Aldrich) and anti-BMAL1 (Santa Cruz Biotechnology) respectively. The amount of co-precipitated BMAL1 was normalized with the amount of precipitated CLOCK.
HEK 293T cells co-expressing wild type or F80A-K220A mutant FLAG-tagged Clock together with tag-free Bmal1 were lysed with ice-cold lysis buffer (50 mM Tris-HCl pH 7.7, 150 mM NaCl, 0.1% Triton X-100, 1 mM PMSF and protease inhibitor cocktail) and centrifuged at 15000×g at 4° C. for 20 minutes. DMSO and different concentrations of CLK8 were added to the whole cell lysate. […] CLOCK and BMAL1 were detected by monoclonal anti-FLAG M2 antibody (Sigma-Aldrich) and anti-BMAL1 (Santa Cruz Biotechnology) respectively. […]

CLOCK:BMAL1 interaction = target: T2, CLOCK:BMAL1 interaction (Homo sapiens, UniProt O15516); experiment: Mammalian two-hybrid assay; type: cell-based; conditions: HEK293T
T2 construct: expressed in transfected cells; host or cells: HEK293T
T2 sequence (O15516 1-846): T1 sequence (O15516 1-846 F80A/K220A) with A80F, A220K
Method: The procedure was carried out according to Checkmate-Promega's protocol. Samples were examined in triplicate sets in a 96-well plate. HEK293T cells with the density of 4×10^4 cell/well were transfected with 50 ng of pG5-luc, 50 ng of pACT-mBmal1, 50 ng of pBind-hsClock plasmids and 0.5 ng of pRL-TK for normalization. Following the transfection, the cells were treated with different concentrations of small molecules. Control cells were treated with 0.5% vehicle (DMSO).
Ultimately, luminescence was measured using Dual-Luciferase Reporter Assay System (Promega) with Fluoroskan Ascent FL plate reader.

CLOCK = target: T3, CLOCK (Homo sapiens, UniProt O15516); experiment: Pull-down assay with biotinylated CLK8, U2OS lysate with endogenous CLOCK; type: binding; design: expressed in transfected cells; host or cells: HEK293T
T3 sequence (O15516 1-846): T1 sequence (O15516 1-846 F80A/K220A) with A80F, A220K

interaction between CLOCK-F80A-K220A and BMAL1 [1]: not affected
affinity for CLOCK (CLOCK; endogenous CLOCK, input vs precipitated sample): high affinity for CLOCK
Structure (SMILES): CC1(C)CCc2c(cc(OCC(=O)Nc3ccccc3C(N)=O)c3c(-c4ccccc4)cc(=O)oc23)O1 [CLK8, 2-[2-({12,12-dimethyl-4-oxo-6-phenyl-3,11-dioxatricyclo [8.4.0.0,2,7]tetradeca-1,5,7,9-tetraen-8-yl}oxy)acetamido] benzamide]
interaction between CLOCK and BMAL1 (two-hybrid) (CLOCK:BMAL1 interaction): reduces the interaction between CLOCK and BMAL1
other core clock components as target (CLOCK; except BMAL1, including NPAS2): none of the other core clock components were detected as a target

From patent US12558342B2, “2-[2-({12,12-dimethyl-4-oxo-6-phenyl-3,11-dioxatricyclo[8.4.0.0,2,7]tetradeca-1,5,7,9-tetraen-8-yl}oxy)acetamido]benzamide and derivatives as inhibitor of clock:bmal1 interaction for the treatment of circadian rhythm diseases and disorders” (KOC UNIVERSITESI, priority 2019, dated 2026)
